Results reported in the supplement of paper PMC8967900.

How the values were obtained:
Assay in all cases: selective drug sensitivity score (sDSS, relative to normal bone marrow) (sDSS (score)); higher = more potent and effective on the cell line relative to normal bone marrow cells
Details in all cases: 72 h
TANOUE = tested on: TANOUE
TMD5 = tested on: TMD5
HPB-ALL = tested on: HPB-ALL
PEER = tested on: PEER
MOLT-14 = tested on: MOLT-14
JURKAT = tested on: JURKAT
COG-LL-317 = tested on: COG-LL-317
COG-LL-332h = tested on: COG-LL-332h
LC4-1 = tested on: LC4-1
380 = tested on: 380
ALL-SIL = tested on: ALL-SIL
MOLT-4 = tested on: MOLT-4
MHH-CALL-2 = tested on: MHH-CALL-2
CCRF-CEM = tested on: CCRF-CEM
KASUMI-10 = tested on: KASUMI-10
697 = tested on: 697
P12-ICHIKAWA = tested on: P12-ICHIKAWA
KARPAS-45 = tested on: KARPAS-45
COG-LL-394h = tested on: COG-LL-394h
DND-41 = tested on: DND-41
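Further: ALL cell lines in 384-well plates, five doses spanning 10,000-fold, each plate scaled between vehicle and 100 µmol/L benzalkonium chloride controls, sDSS an adapted area-under-curve metric.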

SMILES: CN1CCN(C2CCC(n3cc(-c4ccc(Oc5ccccc5)cc4)c4c(N)ncnc43)CC2)CC1 (stereo not given) (top concentration 10000 nM)
- selective drug sensitivity score (TANOUE): -4.68
- selective drug sensitivity score (TMD5): 10.2
- selective drug sensitivity score (HPB-ALL): 0.32
- selective drug sensitivity score (PEER): 7.02
- selective drug sensitivity score (MOLT-14): 3.42
- selective drug sensitivity score (JURKAT): 0.62
- selective drug sensitivity score (COG-LL-317): 0.82
- selective drug sensitivity score (COG-LL-332h): 6.42
- selective drug sensitivity score (LC4-1): -1.78
- selective drug sensitivity score 380: -0.68
- selective drug sensitivity score (ALL-SIL): 16.3
- selective drug sensitivity score (MOLT-4): 0.82
- selective drug sensitivity score (MHH-CALL-2): 3.12
- selective drug sensitivity score (CCRF-CEM): 1.12
- selective drug sensitivity score (KASUMI-10): 8.52
- selective drug sensitivity score 697: 3.32
- selective drug sensitivity score (P12-ICHIKAWA): 1.12
- selective drug sensitivity score (KARPAS-45): 4.12
- selective drug sensitivity score (COG-LL-394h): 4.42
- selective drug sensitivity score (DND-41): 3.62

SMILES: CC[C@H](CC#N)OC(=O)N[C@@H](C)c1cccc(NC(=O)Nc2ccc(-c3cnco3)c(OC)c2)c1 [AVN944] (top concentration 10000 nM)
- selective drug sensitivity score (TANOUE): -3.66
- selective drug sensitivity score (TMD5): 2.74
- selective drug sensitivity score (HPB-ALL): 5.64
- selective drug sensitivity score (PEER): 2.94
- selective drug sensitivity score (MOLT-14): 15.9
- selective drug sensitivity score (JURKAT): 13.7
- selective drug sensitivity score (COG-LL-317): 20.6
- selective drug sensitivity score (COG-LL-332h): 18
- selective drug sensitivity score (LC4-1): 5.34
- selective drug sensitivity score 380: 18.4
- selective drug sensitivity score (ALL-SIL): 6.64
- selective drug sensitivity score (MOLT-4): 15.6
- selective drug sensitivity score (MHH-CALL-2): 9.54
- selective drug sensitivity score (CCRF-CEM): 12.1
- selective drug sensitivity score (KASUMI-10): 10.1
- selective drug sensitivity score 697: 17.5
- selective drug sensitivity score (P12-ICHIKAWA): 14.2
- selective drug sensitivity score (KARPAS-45): 8.84
- selective drug sensitivity score (COG-LL-394h): -2.06
- selective drug sensitivity score (DND-41): 8.44

SMILES: COc1ccc(-c2ccc3c(N4CCOC[C@@H]4C)nc(N4CCOC[C@@H]4C)nc3n2)cc1CO [AZD8055] (top concentration 10000 nM)
- selective drug sensitivity score (TANOUE): -3.02
- selective drug sensitivity score (TMD5): -1.62
- selective drug sensitivity score (HPB-ALL): 0.18
- selective drug sensitivity score (PEER): 6.08
- selective drug sensitivity score (MOLT-14): 1.18
- selective drug sensitivity score (JURKAT): 4.88
- selective drug sensitivity score (COG-LL-317): 4.78
- selective drug sensitivity score (COG-LL-332h): 8.08
- selective drug sensitivity score (LC4-1): 6.38
- selective drug sensitivity score 380: 15.8
- selective drug sensitivity score (ALL-SIL): 6.78
- selective drug sensitivity score (MOLT-4): 7.08
- selective drug sensitivity score (MHH-CALL-2): 6.08
- selective drug sensitivity score (CCRF-CEM): 13.4
- selective drug sensitivity score (KASUMI-10): 0.48
- selective drug sensitivity score 697: 16.8
- selective drug sensitivity score (P12-ICHIKAWA): 6.78
- selective drug sensitivity score (KARPAS-45): 4.78
- selective drug sensitivity score (COG-LL-394h): -2.42
- selective drug sensitivity score (DND-41): 4.78

SMILES: COc1cccc2c1C(=O)c1c(O)c3c(c(O)c1C2=O)C[C@@](O)(C(=O)CO)C[C@@H]3O[C@H]1C[C@H](N)[C@@H](O)[C@H](C)O1 [Epirubicin] (top concentration 1000 nM)
- selective drug sensitivity score (TANOUE): -7.88
- selective drug sensitivity score (TMD5): 1.02
- selective drug sensitivity score (HPB-ALL): 0.12
- selective drug sensitivity score (PEER): -2.98
- selective drug sensitivity score (MOLT-14): 11.6
- selective drug sensitivity score (JURKAT): 1.02
- selective drug sensitivity score (COG-LL-317): 17
- selective drug sensitivity score (COG-LL-332h): 11.3
- selective drug sensitivity score (LC4-1): 7.62
- selective drug sensitivity score 380: 13.8
- selective drug sensitivity score (ALL-SIL): 0.42
- selective drug sensitivity score (MOLT-4): 9.92
- selective drug sensitivity score (MHH-CALL-2): 6.12
- selective drug sensitivity score (CCRF-CEM): 8.02
- selective drug sensitivity score (KASUMI-10): 5.82
- selective drug sensitivity score 697: 10.1
- selective drug sensitivity score (P12-ICHIKAWA): 4.62
- selective drug sensitivity score (KARPAS-45): -0.28
- selective drug sensitivity score (COG-LL-394h): 6.82
- selective drug sensitivity score (DND-41): -0.58

SMILES: CO[C@H]1C[C@@H]2CC[C@@H](C)[C@@](O)(O2)C(=O)C(=O)N2CCCC[C@H]2C(=O)O[C@H]([C@H](C)C[C@@H]2CC[C@@H](OCCO)[C@H](OC)C2)CC(=O)[C@H](C)/C=C(\C)[C@@H](O)[C@@H](OC)C(=O)[C@H](C)C[C@H](C)/C=C/C=C/C=C/1C [Everolimus] (top concentration 100 nM)
- selective drug sensitivity score (TANOUE): -5.3
- selective drug sensitivity score (TMD5): -3.8
- selective drug sensitivity score (HPB-ALL): -5.3
- selective drug sensitivity score (PEER): 3.2
- selective drug sensitivity score (MOLT-14): -2.2
- selective drug sensitivity score (JURKAT): -1
- selective drug sensitivity score (COG-LL-317): 2.4
- selective drug sensitivity score (COG-LL-332h): 4.5
- selective drug sensitivity score (LC4-1): 3.3
- selective drug sensitivity score 380: 16.5
- selective drug sensitivity score (ALL-SIL): -0.2
- selective drug sensitivity score (MOLT-4): -1.2
- selective drug sensitivity score (MHH-CALL-2): 4.2
- selective drug sensitivity score (CCRF-CEM): 5.9
- selective drug sensitivity score (KASUMI-10): -5.3
- selective drug sensitivity score 697: 9.3
- selective drug sensitivity score (P12-ICHIKAWA): -2.5
- selective drug sensitivity score (KARPAS-45): 0.2
- selective drug sensitivity score (COG-LL-394h): -4.9
- selective drug sensitivity score (DND-41): 1.1

SMILES: CON(C)C(=O)N1N=C(c2cc(F)ccc2F)S[C@@]1(CCCN)c1ccccc1 [Filanesib] (top concentration 1000 nM)
- selective drug sensitivity score (TANOUE): -6.5
- selective drug sensitivity score (TMD5): 10.5
- selective drug sensitivity score (HPB-ALL): 20.3
- selective drug sensitivity score (PEER): 19.2
- selective drug sensitivity score (MOLT-14): 22.9
- selective drug sensitivity score (JURKAT): 17.7
- selective drug sensitivity score (COG-LL-317): 20.8
- selective drug sensitivity score (COG-LL-332h): 21.1
- selective drug sensitivity score (LC4-1): 13.2
- selective drug sensitivity score 380: 18.5
- selective drug sensitivity score (ALL-SIL): 16.6
- selective drug sensitivity score (MOLT-4): 9.3
- selective drug sensitivity score (MHH-CALL-2): 16.4
- selective drug sensitivity score (CCRF-CEM): 16.2
- selective drug sensitivity score (KASUMI-10): 14.2
- selective drug sensitivity score 697: 23
- selective drug sensitivity score (P12-ICHIKAWA): 15.9
- selective drug sensitivity score (KARPAS-45): 20.9
- selective drug sensitivity score (COG-LL-394h): 8.7
- selective drug sensitivity score (DND-41): 6.3

SMILES: CN(Cc1cnc2nc(N)nc(N)c2n1)c1ccc(C(=O)N[C@@H](CCC(=O)O)C(=O)O)cc1 [Methotrexate] (top concentration 5000 nM)
- selective drug sensitivity score (TANOUE): 15.3
- selective drug sensitivity score (TMD5): -0.42
- selective drug sensitivity score (HPB-ALL): 5.28
- selective drug sensitivity score (PEER): 14.6
- selective drug sensitivity score (MOLT-14): 10.8
- selective drug sensitivity score (JURKAT): 13.4
- selective drug sensitivity score (COG-LL-317): 9.18
- selective drug sensitivity score (COG-LL-332h): 11.3
- selective drug sensitivity score (LC4-1): -0.02
- selective drug sensitivity score 380: 17.8
- selective drug sensitivity score (ALL-SIL): 15
- selective drug sensitivity score (MOLT-4): 11.2
- selective drug sensitivity score (MHH-CALL-2): 13.8
- selective drug sensitivity score (CCRF-CEM): 13
- selective drug sensitivity score (KASUMI-10): 9.88
- selective drug sensitivity score 697: 0.58
- selective drug sensitivity score (P12-ICHIKAWA): 15.8
- selective drug sensitivity score (KARPAS-45): 11.5
- selective drug sensitivity score (COG-LL-394h): 1.68
- selective drug sensitivity score (DND-41): 15

SMILES: CC[C@@]1(O)C(=O)OCc2c1cc1n(c2=O)Cc2cc3c(CN(C)C)c(O)ccc3nc2-1 [Topotecan] (top concentration 10000 nM)
- selective drug sensitivity score (TANOUE): -3.62
- selective drug sensitivity score (TMD5): 14.3
- selective drug sensitivity score (HPB-ALL): 11.2
- selective drug sensitivity score (PEER): 10.1
- selective drug sensitivity score (MOLT-14): 25.9
- selective drug sensitivity score (JURKAT): 15.2
- selective drug sensitivity score (COG-LL-317): 28
- selective drug sensitivity score (COG-LL-332h): 23.9
- selective drug sensitivity score (LC4-1): 21.7
- selective drug sensitivity score 380: 27.1
- selective drug sensitivity score (ALL-SIL): 24.9
- selective drug sensitivity score (MOLT-4): 19.9
- selective drug sensitivity score (MHH-CALL-2): 26.6
- selective drug sensitivity score (CCRF-CEM): 21.2
- selective drug sensitivity score (KASUMI-10): 18
- selective drug sensitivity score 697: 18.9
- selective drug sensitivity score (P12-ICHIKAWA): 19.2
- selective drug sensitivity score (KARPAS-45): -0.22
- selective drug sensitivity score (COG-LL-394h): 11.4
- selective drug sensitivity score (DND-41): 21.4

SMILES: O=c1[nH]c(=O)n([C@H]2C[C@H](O)[C@@H](CO)O2)cc1C(F)(F)F [Trifluridine] (top concentration 10000 nM)
- selective drug sensitivity score (TANOUE): -1.84
- selective drug sensitivity score (TMD5): -1.84
- selective drug sensitivity score (HPB-ALL): 4.66
- selective drug sensitivity score (PEER): 7.66
- selective drug sensitivity score (MOLT-14): 15.4
- selective drug sensitivity score (JURKAT): 9.66
- selective drug sensitivity score (COG-LL-317): 15.6
- selective drug sensitivity score (COG-LL-332h): 7.46
- selective drug sensitivity score (LC4-1): 16
- selective drug sensitivity score 380: 14
- selective drug sensitivity score (ALL-SIL): 13.7
- selective drug sensitivity score (MOLT-4): 7.36
- selective drug sensitivity score (MHH-CALL-2): 9.96
- selective drug sensitivity score (CCRF-CEM): 14.2
- selective drug sensitivity score (KASUMI-10): 6.36
- selective drug sensitivity score 697: 17.9
- selective drug sensitivity score (P12-ICHIKAWA): 15.4
- selective drug sensitivity score (KARPAS-45): -1.84
- selective drug sensitivity score (COG-LL-394h): 2.66
- selective drug sensitivity score (DND-41): 9.76

SMILES: Cc1sc2c(c1C)C(c1ccc(Cl)cc1)=N[C@@H](CC(=O)NCCCCNC(=O)COc1cccc3c1C(=O)N(C1CCC(=O)NC1=O)C3=O)c1nnc(C)n1-2 (stereo not given in full) [dBET1] (top concentration 10000 nM)
- selective drug sensitivity score (TANOUE): -17.5
- selective drug sensitivity score (TMD5): -13.8
- selective drug sensitivity score (HPB-ALL): -12.7
- selective drug sensitivity score (PEER): -4.48
- selective drug sensitivity score (MOLT-14): -1.48
- selective drug sensitivity score (JURKAT): -11.9
- selective drug sensitivity score (COG-LL-317): 2.42
- selective drug sensitivity score (COG-LL-332h): -8.98
- selective drug sensitivity score (LC4-1): 5.22
- selective drug sensitivity score 380: -4.58
- selective drug sensitivity score (ALL-SIL): -7.08
- selective drug sensitivity score (MOLT-4): -9.28
- selective drug sensitivity score (MHH-CALL-2): 4.92
- selective drug sensitivity score (CCRF-CEM): -3.68
- selective drug sensitivity score (KASUMI-10): 2.32
- selective drug sensitivity score 697: -0.38
- selective drug sensitivity score (P12-ICHIKAWA): -11.6
- selective drug sensitivity score (KARPAS-45): -7.68
- selective drug sensitivity score (COG-LL-394h): -2.78
- selective drug sensitivity score (DND-41): -0.88
